Experimental data as given in patent US20240115557A1, “INHIBITORS OF RNA-GUIDED NUCLEASES AND USES THEREOF” (The Brigham and Women's Hospital, Inc., priority 2022, published 2024).

Biological target: T1, SaCas9 (Staphylococcus aureus, UniProt J7RUA5)
T1 sequence (J7RUA5 1-1053): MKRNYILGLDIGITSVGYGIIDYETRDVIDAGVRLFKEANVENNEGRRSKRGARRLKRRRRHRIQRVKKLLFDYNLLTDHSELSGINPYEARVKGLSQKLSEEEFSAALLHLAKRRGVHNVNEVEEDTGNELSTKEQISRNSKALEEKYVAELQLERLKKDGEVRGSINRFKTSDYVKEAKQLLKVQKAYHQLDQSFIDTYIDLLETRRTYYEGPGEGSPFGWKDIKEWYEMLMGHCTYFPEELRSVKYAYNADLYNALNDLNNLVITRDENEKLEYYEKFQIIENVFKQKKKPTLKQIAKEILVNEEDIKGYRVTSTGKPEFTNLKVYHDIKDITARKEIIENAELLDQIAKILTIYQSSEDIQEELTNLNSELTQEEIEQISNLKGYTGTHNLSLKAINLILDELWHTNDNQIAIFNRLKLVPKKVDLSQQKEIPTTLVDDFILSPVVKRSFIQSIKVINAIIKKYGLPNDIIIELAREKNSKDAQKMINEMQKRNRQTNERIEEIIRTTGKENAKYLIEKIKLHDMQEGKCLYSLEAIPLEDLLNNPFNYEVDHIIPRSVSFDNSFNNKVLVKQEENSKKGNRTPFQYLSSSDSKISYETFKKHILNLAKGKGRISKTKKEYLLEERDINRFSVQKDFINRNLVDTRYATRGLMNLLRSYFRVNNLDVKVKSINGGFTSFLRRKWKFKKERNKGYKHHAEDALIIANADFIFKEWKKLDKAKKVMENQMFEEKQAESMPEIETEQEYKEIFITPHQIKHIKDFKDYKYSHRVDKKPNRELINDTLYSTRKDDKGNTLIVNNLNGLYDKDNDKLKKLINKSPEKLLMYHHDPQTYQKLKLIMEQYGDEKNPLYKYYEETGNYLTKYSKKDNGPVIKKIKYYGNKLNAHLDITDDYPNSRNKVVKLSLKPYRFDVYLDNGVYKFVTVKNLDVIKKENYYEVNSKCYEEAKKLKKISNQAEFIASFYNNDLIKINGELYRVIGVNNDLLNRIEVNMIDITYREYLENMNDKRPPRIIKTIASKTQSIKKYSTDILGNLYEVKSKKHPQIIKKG
Assay: Strand displacement assay, SaCas9 primary screen
Assay type: biochemical
Conditions: for Auto Zscore Rep 1 / Auto Zscore Rep 2 / Normalized Zscore Rep 1 / Normalized Zscore Rep 2: SaCas9 primary screen; for Auto Zscore Rep 1 / Normalized Zscore Rep 1: replicate 1; for Auto Zscore Rep 2 / Normalized Zscore Rep 2: replicate 2; for Normalized Zscore Rep 1 / Normalized Zscore Rep 2: weaker potential hits; for 3 sigma Hit: flag 1 = hit at 3 sigma; for 5 sigma Hit: flag 1 = hit at 5 sigma
Experimental: An overview of the screening for SaCas9 inhibitors is depicted in FIG. 14. A total of 43,168 Compounds were screened from the ICCB Libraries. Libraries screened for the initial compounds include ChemDiv 7 (34,848 cpds), Enamine 1 (5,280 cpds), ChemDiv1 (1,760 cpds), NIH Clinical Collection (450 cpds), Biomol 4—FDA Approved Library (640 cpds). A hit is determined from the Zscore, with 3-5σ being a weak hit, >5σ being a strong hit. The results of the hits include 193 Weak Hits and 249 Strong Hits. The NIH Clinical Collection 1-2014 was screened for 450 of 450 compounds, with 7 hits—1.5%. The Biomol 4—FDA Approved Library was screened for 640 of 640 compounds, with 8 hits—1.2%. […] Enamine 1 was screened for 5,280 of 6,004 compounds, with 44 hits—0.83%. Libraries are commercially available, with reference numbers utilized for compounds identifying the compound structures used. […]
Generalization of CAA to other Cas nucleases. Applicants sought to generalize CAA to other CRISPR-associated nucleases, including from Staphylococcus aureus (SaCas9). Given the similarities between SaCas9 and SpCas9 modes of DNA-substrate binding and protein folding,^26, 27 Applicants hypothesized that SaCas9-induced strand displacement could be similarly measured. Indeed, fluorescence quenching correlated with substrate cleavage in the CAA assay with active SaCas9:gRNA and an ACGGGT PAM sequence, which was validated with gel electrophoresis (FIG. 62F,G and FIG. 69F).
First, Applicants optimized various components and conditions of the strand displacement assay for Cas enzyme activity and generality with different Cas such as SpCas9 (FIG. 62B) or SaCas9 (FIG. 69F) or FnCas12a (FIG. 70A,B). Typically, SpCas9: gRNA (1:1.2 ratio) RNP was pre-formed at 1 μM in Cas9 assay buffer (20 mM Tris-HCl, pH=7.5, 100 mM KCl, 5 mM MgCl2) for 5 min at 4° C. before diluting to 10 nM in Cas9 assay buffer (2× final concentration). 25 μL of the Cas9 2× stock was manually dispensed to a black 384-well plate (Corning 3575) using electronic pipette. Apo SpCas9 (without guide RNA) was used at the same concentration as a control for no activity (mock inhibition). Following this, pre-annealed Alexa-Fluor 647 labeled substrate and quencher were also diluted to 1 nM and 5 nM in Cas9 assay buffer, respectively (2× stock solution). Next, 25 μL of the substrate/quencher solution was added manually to each well of the Cas9-containing 384-well plates using an electronic pipette and was incubated at 37° C. for 2.5 h. Fluorescent signals were read with the microplate reader set to read Alexa-Fluor 647 fluorescence. Assay was performed similarly with SaCas9 and FnCas12a using the respective enzyme, gRNA, substrate, and quencher oligos. Applicants similarly divulged the effect of PAM sequences of dsDNA on its assay specificity using TGG, TGC, AAC PAM containing substrates for SpCas9 (FIG. 62C), and ACGGGT, ACGGTT, TGCCCA PAM substrate for SaCas9 (FIG. 62F) and TTTC, TTGC, AAAG PAM substrates for FnCpf1 (FIG. 63B-C). Applicants also optimized the effective concentration of DS-AF647 and SS-AF647 fluorophores (FIG. 64A), DS-substrate to SpCas9 RNP ratio (FIG. 64B) and substrate to quencher ratio (FIG. 64C) on assay performance. Similarly, Applicants performed a time course experiment to establish the time required for maximum completion of the reaction at various substrate to SpCas9 RNP ratios (FIG. 64D).

SMILES | Auto Zscore Rep 1 | Auto Zscore Rep 2 | Normalized Zscore Rep 1 | Normalized Zscore Rep 2 | 3 sigma Hit | 5 sigma Hit
Cc1c(NC(=O)C2=Cc3sc4c(c3CS2)CCCC4)c(=O)n(-c2ccccc2)n1C [Cpd E722-2603] | −0.3069 | 2.714 | 0.2035 | 0.262 | 1 | –
CN(C)S(=O)(=O)Nc1ccc(N2CCN(CC(=O)N3CCCC3)CC2)c(C(=O)O)c1 [Cpd F290-0671] | −0.453 | −0.8512 | 0.1922 | 0.2017 | 1 | –
CCN(Cc1ccccc1)c1ncc(NS(=O)(=O)c2c(C)cc(C)cc2C)cc1C(=O)O [Cpd F293-0002] | 0.3791 | −0.09351 | 0.2023 | 0.2291 | 1 | –
CCN(Cc1ccccc1)c1ncc(NS(=O)(=O)c2cc(C)ccc2C)cc1C(=O)O [Cpd F293-0010] | 2.149 | 2.534 | 0.2507 | 0.2028 | 1 | 1
Cc1cc(C)c(S(=O)(=O)Nc2cnc(N3CCCC3)c(C(=O)O)c2)c(C)c1 [Cpd F293-0426] | 0.8114 | 1.196 | 0.2469 | 0.2531 | 1 | 1
Cc1cc(C)c(S(=O)(=O)Nc2cnc(N3CCCC3)c(C(=O)O)c2)cc1C [Cpd F293-0458] | 1.794 | 2.846 | 0.4509 | 0.429 | 1 | 1
CCCCN(CC)c1ncc(NS(=O)(=O)CC)cc1C(=O)O [Cpd F293-0526] | 0.7951 | −0.08392 | 0.179 | 0.186 | 1 | –
CCCCN(CC)c1ncc(NS(C)(=O)=O)cc1C(=O)O [Cpd F293-0529] | 0.1547 | −0.2374 | 0.1815 | 0.1895 | 1 | –
CCS(=O)(=O)Nc1cnc(N(CC(C)C)CC(C)C)c(C(=O)O)c1 [Cpd F293-0563] | 1.978 | 2.223 | 0.2792 | 0.3121 | 1 | 1
Cc1cc(C)c(S(=O)(=O)Nc2cnc(N(CC(C)C)CC(C)C)c(C(=O)O)c2)cc1C [Cpd F293-0589] | 1.656 | 0.2997 | 0.335 | 0.2929 | 1 | 1
CCS(=O)(=O)Nc1cnc(N(C)CCCc2c(C)nn(C)c2C)c(C(=O)O)c1 [Cpd F293-0908] | −0.5672 | 0.4148 | 0.2527 | 0.2772 | 1 | 1

Second part, the molecule after the results:

Auto Zscore Rep 1 | Auto Zscore Rep 2 | Normalized Zscore Rep 1 | Normalized Zscore Rep 2 | 3 sigma Hit | 5 sigma Hit | SMILES
0.4484 | 1.331 | 0.18 | 0.1781 | 1 | – | CCN(Cc1ccccc1)c1ncc(NS(=O)(=O)c2ccc(F)cc2)cc1C(=O)O [Cpd F293-0001]
1.668 | 0.9183 | 0.2707 | 0.1884 | 1 | 1 | CCN(Cc1ccccc1)c1ncc(NS(=O)(=O)c2ccccc2)cc1C(=O)O [Cpd F293-0004]
1.342 | 0.9231 | 0.3022 | 0.2957 | 1 | 1 | CCN(Cc1ccccc1)c1ncc(NS(=O)(=O)CC)cc1C(=O)O [Cpd F293-0006]
−1.371 | 1.264 | 0.1977 | 0.2223 | 1 | – | COc1ccc(OC)c(S(=O)(=O)Nc2cnc(N3CCCC3)c(C(=O)O)c2)c1 [Cpd F293-0436]
1.399 | 1.863 | 0.3305 | 0.3044 | 1 | 1 | O=C(O)c1cc(NS(=O)(=O)c2ccc3c(c2)CCCC3)cnc1N1CCCC1 [Cpd F293-0441]
2.129 | 2.544 | 0.2953 | 0.3056 | 1 | 1 | CCN(CCN(C)C)c1ncc(NS(=O)(=O)c2cc(C)c(C)cc2C)cc1C(=O)O [Cpd F293-0515]
0.2771 | −0.1319 | 0.2333 | 0.2114 | 1 | 1 | CCN(CC)c1ncc(NS(=O)(=O)c2cc(C)c(C)cc2C)cc1C(=O)O [Cpd F293-0740]
−0.9384 | 0.6834 | 0.1939 | 0.1646 | 1 | – | O=C(O)c1cc(NS(=O)(=O)c2cc(F)ccc2F)cnc1N1CCOCC1 [Cpd F293-0775]
2.553 | 2.947 | 0.2358 | 0.2376 | 1 | 1 | CN(C)c1ncc(NS(=O)(=O)c2cc(F)ccc2F)cc1C(=O)O [Cpd F293-0814]
1.676 | 1.235 | 0.2087 | 0.159 | 1 | – | CN(C)c1ncc(NS(=O)(=O)c2ccc(F)c(F)c2)cc1C(=O)O [Cpd F293-0815]
